According to ChEMBL document CHEMBL4507276 (2021):

Columns and labels:
Details in all cases: Compound concentration 1000.0 nM
[1] = target: T1, Tyrosine-protein kinase ITK/TSK (Homo sapiens) (UniProt Q08881)
T1 sequence (whole entry): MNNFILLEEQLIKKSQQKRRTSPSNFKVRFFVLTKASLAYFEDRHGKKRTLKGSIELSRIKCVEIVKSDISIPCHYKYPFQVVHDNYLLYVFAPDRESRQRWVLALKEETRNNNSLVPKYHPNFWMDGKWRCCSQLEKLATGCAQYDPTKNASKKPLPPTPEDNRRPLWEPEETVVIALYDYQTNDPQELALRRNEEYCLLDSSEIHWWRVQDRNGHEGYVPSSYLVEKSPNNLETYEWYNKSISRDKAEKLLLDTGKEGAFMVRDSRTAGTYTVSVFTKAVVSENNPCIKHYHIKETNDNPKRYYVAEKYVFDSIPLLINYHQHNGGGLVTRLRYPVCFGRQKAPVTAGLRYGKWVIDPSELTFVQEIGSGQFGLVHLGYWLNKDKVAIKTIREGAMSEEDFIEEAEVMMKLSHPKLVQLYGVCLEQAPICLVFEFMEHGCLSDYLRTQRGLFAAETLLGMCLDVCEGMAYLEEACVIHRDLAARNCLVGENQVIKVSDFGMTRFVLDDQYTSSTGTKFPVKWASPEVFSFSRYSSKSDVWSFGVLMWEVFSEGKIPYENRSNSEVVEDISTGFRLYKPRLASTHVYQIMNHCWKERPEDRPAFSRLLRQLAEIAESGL

[2] = test system: Epidermal growth factor receptor (Homo sapiens), P00533 [UNDEFINED MUTATION]
Epidermal growth factor receptor (Homo sapiens), P00533 [UNDEFINED MUTATION], sequence (P00533 whole entry, looked up, change not shown): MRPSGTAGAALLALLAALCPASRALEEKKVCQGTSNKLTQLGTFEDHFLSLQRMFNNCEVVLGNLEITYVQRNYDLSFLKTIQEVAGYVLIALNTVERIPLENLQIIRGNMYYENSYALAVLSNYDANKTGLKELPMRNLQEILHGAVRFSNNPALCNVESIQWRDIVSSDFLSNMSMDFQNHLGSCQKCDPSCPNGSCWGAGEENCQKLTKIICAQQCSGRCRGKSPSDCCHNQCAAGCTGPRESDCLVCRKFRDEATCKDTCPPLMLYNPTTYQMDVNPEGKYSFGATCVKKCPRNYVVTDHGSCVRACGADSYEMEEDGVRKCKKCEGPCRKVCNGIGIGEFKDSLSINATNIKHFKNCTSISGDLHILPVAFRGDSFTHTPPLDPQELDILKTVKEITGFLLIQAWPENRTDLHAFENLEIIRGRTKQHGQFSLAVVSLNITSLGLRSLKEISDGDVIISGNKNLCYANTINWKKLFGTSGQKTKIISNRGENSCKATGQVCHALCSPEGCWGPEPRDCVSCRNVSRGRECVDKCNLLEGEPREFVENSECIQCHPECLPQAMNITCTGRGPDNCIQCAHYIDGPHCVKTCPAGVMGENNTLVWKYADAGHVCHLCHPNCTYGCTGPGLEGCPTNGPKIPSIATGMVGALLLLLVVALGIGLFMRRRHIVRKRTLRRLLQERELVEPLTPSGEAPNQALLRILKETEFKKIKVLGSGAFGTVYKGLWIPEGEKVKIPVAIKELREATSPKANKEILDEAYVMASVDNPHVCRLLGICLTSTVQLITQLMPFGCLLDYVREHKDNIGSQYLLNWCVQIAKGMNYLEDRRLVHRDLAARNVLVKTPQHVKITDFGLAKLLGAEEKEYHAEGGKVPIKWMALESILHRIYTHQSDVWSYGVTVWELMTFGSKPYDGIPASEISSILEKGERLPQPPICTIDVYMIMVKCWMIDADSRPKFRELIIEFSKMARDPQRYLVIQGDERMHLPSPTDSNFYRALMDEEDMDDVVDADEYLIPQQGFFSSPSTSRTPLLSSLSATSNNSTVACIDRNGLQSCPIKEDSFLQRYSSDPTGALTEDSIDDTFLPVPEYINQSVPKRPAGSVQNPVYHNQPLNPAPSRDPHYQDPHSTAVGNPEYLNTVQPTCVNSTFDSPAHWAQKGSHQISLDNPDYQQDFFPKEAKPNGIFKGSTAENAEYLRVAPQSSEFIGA

[3] = target: T2, Serine/threonine-protein kinase BRSK1 (Homo sapiens) (UniProt Q8TDC3)
T2 sequence (whole entry): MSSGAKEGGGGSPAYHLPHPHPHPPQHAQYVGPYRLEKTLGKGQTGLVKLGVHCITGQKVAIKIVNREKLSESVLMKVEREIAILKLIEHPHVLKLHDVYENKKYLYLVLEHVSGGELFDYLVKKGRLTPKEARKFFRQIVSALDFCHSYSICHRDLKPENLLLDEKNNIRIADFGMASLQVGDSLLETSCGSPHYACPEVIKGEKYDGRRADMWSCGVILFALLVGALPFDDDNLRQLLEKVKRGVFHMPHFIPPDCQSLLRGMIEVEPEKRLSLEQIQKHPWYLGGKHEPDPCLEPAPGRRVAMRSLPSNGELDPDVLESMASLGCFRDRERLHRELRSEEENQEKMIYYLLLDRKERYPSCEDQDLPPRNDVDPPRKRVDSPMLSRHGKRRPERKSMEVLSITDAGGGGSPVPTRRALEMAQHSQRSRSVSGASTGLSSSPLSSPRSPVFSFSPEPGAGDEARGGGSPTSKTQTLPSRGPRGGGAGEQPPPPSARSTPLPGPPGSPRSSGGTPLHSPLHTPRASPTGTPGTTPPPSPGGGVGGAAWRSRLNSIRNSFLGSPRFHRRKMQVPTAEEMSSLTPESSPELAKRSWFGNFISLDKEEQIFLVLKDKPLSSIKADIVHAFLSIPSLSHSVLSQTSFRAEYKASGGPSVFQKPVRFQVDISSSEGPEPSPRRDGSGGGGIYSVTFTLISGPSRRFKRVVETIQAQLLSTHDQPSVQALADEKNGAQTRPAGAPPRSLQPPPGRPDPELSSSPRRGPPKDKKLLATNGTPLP

[4] = target: T3, Dual specificity mitogen-activated protein kinase kinase 3 (Homo sapiens) (UniProt P46734)
T3 sequence (whole entry): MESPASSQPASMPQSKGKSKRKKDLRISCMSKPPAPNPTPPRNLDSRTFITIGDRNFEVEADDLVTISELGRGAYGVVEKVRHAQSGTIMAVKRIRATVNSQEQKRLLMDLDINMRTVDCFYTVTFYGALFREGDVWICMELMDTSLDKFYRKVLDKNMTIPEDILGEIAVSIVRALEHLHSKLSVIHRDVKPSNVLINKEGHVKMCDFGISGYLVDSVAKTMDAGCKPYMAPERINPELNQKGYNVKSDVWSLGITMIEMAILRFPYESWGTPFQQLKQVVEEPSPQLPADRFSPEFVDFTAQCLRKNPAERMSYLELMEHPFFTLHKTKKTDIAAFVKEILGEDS

Measured: residual activity

CN(C)C(=O)Cn1cc(-c2nc(C3(c4ccc(-c5cnc(N)nc5)cc4)CC3)no2)cn1 [BI 0153]
inactive: [1] 92% | [2] 100% | [3] 93% | [4] 71%

CN(C)C(=O)Cn1cc(-c2nc([C@@](C)(c3ccc(-c4cnc(N)nc4)cc3)C3CC3)no2)cn1 [BI 665915]
inactive: [1] 99% | [2] 100% | [3] 98% | [4] 83%
